# In US11000033B2, “Ketone or oxime compound, and herbicide” (NISSAN CHEMICAL CORPORATION, priority 2014, dated 2021):
# Key:
# Assay type in all cases: in vivo
# wheat [1] = assay: Test Example 4: effect on crop by soil treatment (symbol e); details: application herbicide amount 320 g/ha
# Summary of the method: (§1)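 Greenhouse culture at 25° C. to 30° C. followed sowing of seed in spots on sterilized diluvial soil with a soil cover close to 1.5 cm thick.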
# [2] = test system: Echinochloa oryzacola Vasing.; assay: Test Example 1: herbicidal activity, application before weed generation in submerged conditions (symbol A); details: application herbicide amount 320 g/ha
# Summary of the method: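 Compound emulsion was diluted to a set herbicide amount and applied to the water surface on the sowing day, into submerged (4 cm) alluvial-soil pots sown with mixed weed seeds and transplanted 2.5-leaf rice. Pots were held in a 25–30 °C greenhouse, and weeds were scored 0–5 by herbicidal ratio after 3 weeks.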
# Alopecurus myosuroides [3] = assay: Test Example 4: herbicidal effect by soil treatment (symbol J); details: application herbicide amount 320 g/ha
# Summary of the method: (§2)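 Seeds were sown in sterilized diluvial soil, covered with about 1.5 cm of soil, and the soil surface was sprayed with a water-diluted emulsion of the compound at a predetermined rate. Plants grew in a greenhouse at 25° C. to 30° C.; effects were scored visually 3 weeks after application.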
# Alopecurus myosuroides [4] = assay: Test Example 5: herbicidal effect by foliage application, plastic box (symbol J); details: 320 g/ha, 3 weeks after application
# Summary of the method: (§3)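 After sowing into sterilized diluvial soil and growing two weeks under glass at 25° C. to 30° C., seedlings receive a uniform foliar spray of diluted emulsion. Damage is judged visually three weeks on.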
# Monochoria vaginalis = assay: Test Example 2: herbicidal activity, application during weed generation in submerged conditions (symbol C); details: Table 23; application herbicide amount 320 g/ha; grade 0-5 by criteria of Test Example 1
# Summary of the method: (§4)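 Read-out: herbicidal effect on each species rated on a visual scale 3 weeks after treatment. Plants were raised together from seed in flooded alluvial soil (4 cm water) at 25° C. to 30° C. and treated at one to two leaves by water-surface application of diluted emulsion.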
# Cyperus difformis = assay: Test Example 3: herbicidal effect by foliage application, Wagner pot (symbol E); details: application herbicide amount 320 g/ha
# Summary of the method: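 Scoring took place 3 weeks after application, using fixed criteria. Plants had been raised from seed for 14 days at 25 to 30 °C in submerged alluvial soil before a diluted emulsion of the test compound was sprayed uniformly on the leaves.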
# wheat [5] = assay: Test Example 5: effect on crop by foliage application, plastic box (symbol e); details: 320 g/ha, 3 weeks after application
# Summary of the method: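 Greenhouse culture at 25° C. to 30° C. followed spot-like sowing into sterilized diluvial soil, with seed covered by roughly 1.5 cm of soil.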
# beet = assay: Test Example 4: effect on crop by soil treatment (symbol f); details: application herbicide amount 320 g/ha
# Summary of the method: as §1
# [6] = test system: Echinochloa crus-galli var. crus-galli; assay: Test Example 4: herbicidal effect by soil treatment (symbol H); details: application herbicide amount 320 g/ha
# Summary of the method: as §2
# [7] = test system: Echinochloa oryzacola Vasing.; assay: Test Example 2: herbicidal activity, application during weed generation in submerged conditions (symbol A); details: Table 23; application herbicide amount 320 g/ha; grade 0-5 by criteria of Test Example 1
# Summary of the method: as §4
# soybean = assay: Test Example 4: effect on crop by soil treatment (symbol d); details: application herbicide amount 320 g/ha
# Summary of the method: as §1
# Amaranthus retroflexus = assay: Test Example 5: herbicidal effect by foliage application, plastic box (symbol N); details: 320 g/ha, 3 weeks after application
# Summary of the method: as §3
SMILES,"e: wheat, effect on crop grade (wheat [1])","Herbicidal effect grade, A: Echinochloa oryzacola Vasing. [2]","J: Alopecurus myosuroides, herbicidal effect grade (Alopecurus myosuroides [3])","J: Alopecurus myosuroides, herbicidal effect (criteria of Test Example 1) (Alopecurus myosuroides [4])","Herbicidal effect grade, C: Monochoria vaginalis (Monochoria vaginalis)","herbicidal effect on E, grade 0-5 (Cyperus difformis)","e: wheat, effect on crop (criteria of Test Example 1) (wheat [5])","f: beet, effect on crop grade (beet)","H: Echinochloa crus-galli var. crus-galli, herbicidal effect grade [6]","Herbicidal effect grade, A: Echinochloa oryzacola Vasing. [7]","d: soybean, effect on crop grade (soybean)","N: Amaranthus retroflexus, herbicidal effect (criteria of Test Example 1) (Amaranthus retroflexus)"
CON=C(C)CC1CC(O)=C(c2c(C)cc(-c3ncccn3)cc2C)C1=O (mixture of isomers) [6-057],1 (Herbicidal ratio of 5% or higher and lower than 20%),3 (Herbicidal ratio of 40% or higher and lower than 70%),3 (Herbicidal ratio of 40% or higher and lower than 70%),5 (Herbicidal ratio of 90% or more (almost completely withered)),0 (Herbicidal ratio of 5% or lower (almost no effect)),5 (Herbicidal ratio of 90% or more (almost completely withered)),5 (Herbicidal ratio of 90% or more (almost completely withered)),0 (Herbicidal ratio of 5% or lower (almost no effect)),5 (Herbicidal ratio of 90% or more (almost completely withered)),3 (Herbicidal ratio of 40% or higher and lower than 70%),0 (Herbicidal ratio of 5% or lower (almost no effect)),1 (Herbicidal ratio of 5% or higher and lower than 20%)
CON=C(C)CC1CC(O)=C(c2c(C)cc(-c3ccc(F)cc3)cc2C)C1=O (mixture of isomers) [6-058],5 (Herbicidal ratio of 90% or more (almost completely withered)),5 (Herbicidal ratio of 90% or more (almost completely withered)),5 (Herbicidal ratio of 90% or more (almost completely withered)),5 (Herbicidal ratio of 90% or more (almost completely withered)),5 (Herbicidal ratio of 90% or more (almost completely withered)),5 (Herbicidal ratio of 90% or more (almost completely withered)),5 (Herbicidal ratio of 90% or more (almost completely withered)),4 (Herbicidal ratio of 70% or higher and lower than 90%),5 (Herbicidal ratio of 90% or more (almost completely withered)),5 (Herbicidal ratio of 90% or more (almost completely withered)),0 (Herbicidal ratio of 5% or lower (almost no effect)),5 (Herbicidal ratio of 90% or more (almost completely withered))
CON=C(C)CC1CC(OC(=O)N2CCOCC2)=C(c2c(C)cc(-c3ccc(F)cc3)cc2C)C1=O (mixture of isomers) [6-059],0 (Herbicidal ratio of 5% or lower (almost no effect)),5 (Herbicidal ratio of 90% or more (almost completely withered)),5 (Herbicidal ratio of 90% or more (almost completely withered)),5 (Herbicidal ratio of 90% or more (almost completely withered)),4 (Herbicidal ratio of 70% or higher and lower than 90%),5 (Herbicidal ratio of 90% or more (almost completely withered)),5 (Herbicidal ratio of 90% or more (almost completely withered)),0 (Herbicidal ratio of 5% or lower (almost no effect)),2 (Herbicidal ratio of 20% or higher and lower than 40%),5 (Herbicidal ratio of 90% or more (almost completely withered)),0 (Herbicidal ratio of 5% or lower (almost no effect)),5 (Herbicidal ratio of 90% or more (almost completely withered))
CON=C(C)CC1CC(OS(=O)(=O)N(C)C)=C(c2c(C)cc(-c3ccc(F)cc3)cc2C)C1=O (mixture of isomers) [6-060],0 (Herbicidal ratio of 5% or lower (almost no effect)),5 (Herbicidal ratio of 90% or more (almost completely withered)),3 (Herbicidal ratio of 40% or higher and lower than 70%),5 (Herbicidal ratio of 90% or more (almost completely withered)),4 (Herbicidal ratio of 70% or higher and lower than 90%),5 (Herbicidal ratio of 90% or more (almost completely withered)),4 (Herbicidal ratio of 70% or higher and lower than 90%),0 (Herbicidal ratio of 5% or lower (almost no effect)),4 (Herbicidal ratio of 70% or higher and lower than 90%),5 (Herbicidal ratio of 90% or more (almost completely withered)),0 (Herbicidal ratio of 5% or lower (almost no effect)),4 (Herbicidal ratio of 70% or higher and lower than 90%)
CON=C(C)CC1CC(OC(=O)COc2ccccc2)=C(c2c(C)cc(-c3ccc(Cl)cc3)cc2C)C1=O (mixture of isomers) [6-061],2 (Herbicidal ratio of 20% or higher and lower than 40%),5 (Herbicidal ratio of 90% or more (almost completely withered)),5 (Herbicidal ratio of 90% or more (almost completely withered)),5 (Herbicidal ratio of 90% or more (almost completely withered)),2 (Herbicidal ratio of 20% or higher and lower than 40%),5 (Herbicidal ratio of 90% or more (almost completely withered)),5 (Herbicidal ratio of 90% or more (almost completely withered)),0 (Herbicidal ratio of 5% or lower (almost no effect)),5 (Herbicidal ratio of 90% or more (almost completely withered)),5 (Herbicidal ratio of 90% or more (almost completely withered)),0 (Herbicidal ratio of 5% or lower (almost no effect)),1 (Herbicidal ratio of 5% or higher and lower than 20%)
CON=C(C)CC1CC(OC(=O)N2CCOCC2)=C(c2c(C)cc(-c3ccc(Cl)cc3)cc2C)C1=O (mixture of isomers) [6-062],0 (Herbicidal ratio of 5% or lower (almost no effect)),5 (Herbicidal ratio of 90% or more (almost completely withered)),4 (Herbicidal ratio of 70% or higher and lower than 90%),5 (Herbicidal ratio of 90% or more (almost completely withered)),3 (Herbicidal ratio of 40% or higher and lower than 70%),5 (Herbicidal ratio of 90% or more (almost completely withered)),5 (Herbicidal ratio of 90% or more (almost completely withered)),0 (Herbicidal ratio of 5% or lower (almost no effect)),5 (Herbicidal ratio of 90% or more (almost completely withered)),5 (Herbicidal ratio of 90% or more (almost completely withered)),0 (Herbicidal ratio of 5% or lower (almost no effect)),1 (Herbicidal ratio of 5% or higher and lower than 20%)
